According to patent US20240393292A1, “ALLERGY ANTIGEN AND EPITOPE THEREOF” (HOYU CO., LTD., priority 2019, published 2024):

Tested on: IgE antibodies from patients
Assay: Wheat epitope mapping (2): overlapping 10-amino-acid peptide fragments shifted by one amino acid
Type: binding, human
Conditions: sequence without X; for Epitope sequence binding to IgE antibody, rank of the sequence (Key/Preferably/More preferably/Further preferably): serum of patient P50 (child, general immediate type allergy to wheat)
Procedure, shortened: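 Cellulose-bound 10-mer peptides offset by one residue were probed with patient serum IgE and detected by chemiluminescence. Secondary-antibody-only signals were subtracted per peptide. Residual binding was expressed as % of the parent overlapping peptide, scored as none (<30%), poor (30–<50%), somewhat poor (50–<70%) or retained (≥70%).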

[1] = serum of patient G1 (adult, general immediate type allergy to wheat)
[2] = serum of patient G4 (adult, general immediate type allergy to wheat)
[3] = serum of patient G7 (adult, general immediate type allergy to wheat)
[4] = serum of patient G9 (adult, general immediate type allergy to wheat)

Substance: 2291 (LGGIDK; REGION 1..6: note = epitope) [compound 2291]
- Epitope sequence binding to IgE antibody, rank of the sequence (Key/Preferably/More preferably) (serum of patient P34 (WDEIA)): Key

Substance: 2292 (KRVIERFEK; REGION 1..9: note = epitope) [compound 2292]
- Epitope sequence binding to IgE antibody, rank of the sequence (Key/Preferably/More preferably) (serum of patient P34 (WDEIA)): Preferably

Substance: 2293 (ERFE; REGION 1..4: note = epitope) [compound 2293]
- Epitope sequence binding to IgE antibody, rank of the sequence (Key/Preferably/More preferably) (serum of patient P34 (WDEIA)): Key

Substance: 2294 (LGGIDKRVIE; REGION 1..10: note = epitope) [compound 2294]
- Epitope sequence binding to IgE antibody, rank of the sequence (Key/Preferably/More preferably/Further preferably): More preferably

Substance: 2295 (LGGIDKRV; REGION 1..8: note = epitope) [compound 2295]
- Epitope sequence binding to IgE antibody, rank of the sequence (Key/Preferably/More preferably/Further preferably): Preferably

Substance: 2296 (GIDK; REGION 1..4: note = epitope) [compound 2296]
- Epitope sequence binding to IgE antibody, rank of the sequence (Key/Preferably/More preferably/Further preferably): Key

Substance: 2297 (ERFEK; REGION 1..5: note = epitope) [compound 2297]
- Epitope sequence binding to IgE antibody, rank of the sequence (Key/Preferably/More preferably/Further preferably): Key

Substance: 2299 (GIDK; REGION 1..4: note = epitope) [compound 2299]
- Epitope sequence binding to IgE antibody, rank of the sequence (Key/Preferably/More preferably) [1]: Key

Substance: 2300 (DKRVIERFEK; REGION 1..10: note = epitope) [compound 2300]
- Epitope sequence binding to IgE antibody, rank of the sequence (Key/Preferably/More preferably) [1]: Key

Substance: 2301 (LGGIDK; REGION 1..6: note = epitope) [compound 2301]
- Epitope sequence binding to IgE antibody, rank of the sequence (Key/Preferably/More preferably) [2]: Key

Substance: 2302 (IDKRVIERFE; REGION 1..10: note = epitope) [compound 2302]
- Epitope sequence binding to IgE antibody, rank of the sequence (Key/Preferably/More preferably) [2]: Key

Substance: 2303 (LGGIDK; REGION 1..6: note = epitope) [compound 2303]
- Epitope sequence binding to IgE antibody, rank of the sequence (Key/Preferably/More preferably) [3]: Key

Substance: 2304 (DKRVIERFE; REGION 1..9: note = epitope) [compound 2304]
- Epitope sequence binding to IgE antibody, rank of the sequence (Key/Preferably/More preferably) [3]: Key

Substance: 2305 (LGGIDK; REGION 1..6: note = epitope) [compound 2305]
- Epitope sequence binding to IgE antibody, rank of the sequence (Key/Preferably/More preferably) [4]: Preferably

Substance: 2306 (GIDK; REGION 1..4: note = epitope) [compound 2306]
- Epitope sequence binding to IgE antibody, rank of the sequence (Key/Preferably/More preferably) [4]: Key

Substance: 2307 (RVIERFEK; REGION 1..8: note = epitope) [compound 2307]
- Epitope sequence binding to IgE antibody, rank of the sequence (Key/Preferably/More preferably) [4]: Preferably

Substance: 2308 (ERFEK; REGION 1..5: note = epitope) [compound 2308]
- Epitope sequence binding to IgE antibody, rank of the sequence (Key/Preferably/More preferably) [4]: Key

Substance: 2314 (SRYDAIR; REGION 1..7: note = epitope) [compound 2314]
- Epitope sequence binding to IgE antibody, rank of the sequence (Key/Preferably/More preferably) (serum of patient P25 (WDEIA)): Key

Substance: 2315 (IIYS; REGION 1..4: note = epitope) [compound 2315]
- Epitope sequence binding to IgE antibody, rank of the sequence (Key/Preferably/More preferably) (serum of patient P25 (WDEIA)): Key

Substance: 2327 (RYDAIRAII; REGION 1..9: note = epitope) [compound 2327]
- Epitope sequence binding to IgE antibody, rank of the sequence (Key/Preferably/More preferably) (serum of patient P34 (WDEIA)): Key

Substance: 2328 (IIYSI; REGION 1..5: note = epitope) [compound 2328]
- Epitope sequence binding to IgE antibody, rank of the sequence (Key/Preferably/More preferably) (serum of patient P34 (WDEIA)): Key

Substance: 2330 (AIRAI; REGION 1..5: note = epitope) [compound 2330]
- Epitope sequence binding to IgE antibody, rank of the sequence (Key/Preferably/More preferably) (serum of patient P53 (child, general immediate type allergy to wheat)): Key

Substance: 2339 (AIIYS; REGION 1..5: note = epitope) [compound 2339]
- Epitope sequence binding to IgE antibody, rank of the sequence (Key/Preferably/More preferably) (serum of patient G6 (adult, general immediate type allergy to wheat)): Key

Substance: 2344 (HDIDRCAY; REGION 1..8: note = epitope) [compound 2344]
- Epitope sequence binding to IgE antibody, rank of the sequence (Key/Preferably/More preferably) (serum of patient P9 (WDEIA)): Key

Substance: 2345 (YVTEIVL; REGION 1..7: note = epitope) [compound 2345]
- Epitope sequence binding to IgE antibody, rank of the sequence (Key/Preferably/More preferably) (serum of patient P9 (WDEIA)): More preferably

Substance: 2346 (YVTEIV; REGION 1..6: note = epitope) [compound 2346]
- Epitope sequence binding to IgE antibody, rank of the sequence (Key/Preferably/More preferably) (serum of patient P9 (WDEIA)): Preferably

Substance: 2347 (VTEI; REGION 1..4: note = epitope) [compound 2347]
- Epitope sequence binding to IgE antibody, rank of the sequence (Key/Preferably/More preferably) (serum of patient P9 (WDEIA)): Key

Substance: 2350 (YVTEIVL; REGION 1..7: note = epitope) [compound 2350]
- Epitope sequence binding to IgE antibody, rank of the sequence (Key/Preferably/More preferably) (serum of patient P12 (WDEIA)): More preferably

Substance: 2356 (YVTEIV; REGION 1..6: note = epitope) [compound 2356]
- Epitope sequence binding to IgE antibody, rank of the sequence (Key/Preferably/More preferably) (serum of patient P14 (WDEIA)): Key

Substance: 2357 (HDIDRCAY; REGION 1..8: note = epitope) [compound 2357]
- Epitope sequence binding to IgE antibody, rank of the sequence (Key/Preferably/More preferably) (serum of patient P18 (WDEIA)): Key

Substance: 2358 (TEIV; REGION 1..4: note = epitope) [compound 2358]
- Epitope sequence binding to IgE antibody, rank of the sequence (Key/Preferably/More preferably) (serum of patient P18 (WDEIA)): Key

Substance: 2362 (VTEIV; REGION 1..5: note = epitope) [compound 2362]
- Epitope sequence binding to IgE antibody, rank of the sequence (Key/Preferably/More preferably) (serum of patient P21 (WDEIA)): Key

Substance: 2367 (VTEIV; REGION 1..5: note = epitope) [compound 2367]
- Epitope sequence binding to IgE antibody, rank of the sequence (Key/Preferably/More preferably) (serum of patient P24 (WDEIA)): Preferably

Substance: 2371 (HDIDRCAY; REGION 1..8: note = epitope) [compound 2371]
- Epitope sequence binding to IgE antibody, rank of the sequence (Key/Preferably/More preferably) (serum of patient P26 (WDEIA)): Key

Substance: 2372 (TEIVL; REGION 1..5: note = epitope) [compound 2372]
- Epitope sequence binding to IgE antibody, rank of the sequence (Key/Preferably/More preferably) (serum of patient P26 (WDEIA)): Preferably

Substance: 2373 (TEIV; REGION 1..4: note = epitope) [compound 2373]
- Epitope sequence binding to IgE antibody, rank of the sequence (Key/Preferably/More preferably) (serum of patient P26 (WDEIA)): Key

Substance: 2376 (AYVTEIV; REGION 1..7: note = epitope) [compound 2376]
- Epitope sequence binding to IgE antibody, rank of the sequence (Key/Preferably/More preferably) (serum of patient P27 (WDEIA)): Preferably

Substance: 2377 (YVTEIV; REGION 1..6: note = epitope) [compound 2377]
- Epitope sequence binding to IgE antibody, rank of the sequence (Key/Preferably/More preferably) (serum of patient P27 (WDEIA)): Key

Substance: 2379 (HDIDRCAY; REGION 1..8: note = epitope) [compound 2379]
- Epitope sequence binding to IgE antibody, rank of the sequence (Key/Preferably/More preferably) (serum of patient P28 (WDEIA)): Key

Substance: 2380 (DRCAYVTEIV; REGION 1..10: note = epitope) [compound 2380]
- Epitope sequence binding to IgE antibody, rank of the sequence (Key/Preferably/More preferably) (serum of patient P28 (WDEIA)): Key

Substance: 2383 (HDIDRCAY; REGION 1..8: note = epitope) [compound 2383]
- Epitope sequence binding to IgE antibody, rank of the sequence (Key/Preferably/More preferably) (serum of patient P29 (WDEIA)): Key

Substance: 2384 (YVTEIVL; REGION 1..7: note = epitope) [compound 2384]
- Epitope sequence binding to IgE antibody, rank of the sequence (Key/Preferably/More preferably) (serum of patient P29 (WDEIA)): Preferably

Substance: 2385 (VTEI; REGION 1..4: note = epitope) [compound 2385]
- Epitope sequence binding to IgE antibody, rank of the sequence (Key/Preferably/More preferably) (serum of patient P29 (WDEIA)): Key

Substance: 2388 (RCAYVTEIV; REGION 1..9: note = epitope) [compound 2388]
- Epitope sequence binding to IgE antibody, rank of the sequence (Key/Preferably/More preferably) (serum of patient P32 (WDEIA)): Key

Substance: 2390 (VTEIV; REGION 1..5: note = epitope) [compound 2390]
- Epitope sequence binding to IgE antibody, rank of the sequence (Key/Preferably/More preferably) (serum of patient P33 (WDEIA)): Key

Substance: 2393 (PHDIDRCAYV; REGION 1..10: note = epitope) [compound 2393]
- Epitope sequence binding to IgE antibody, rank of the sequence (Key/Preferably/More preferably) (serum of patient P34 (WDEIA)): Preferably

Substance: 2394 (HDIDRCAYV; REGION 1..9: note = epitope) [compound 2394]
- Epitope sequence binding to IgE antibody, rank of the sequence (Key/Preferably/More preferably) (serum of patient P34 (WDEIA)): Key

Substance: 2395 (TEIV; REGION 1..4: note = epitope) [compound 2395]
- Epitope sequence binding to IgE antibody, rank of the sequence (Key/Preferably/More preferably) (serum of patient P34 (WDEIA)): Key

Substance: 2398 (TEIVL; REGION 1..5: note = epitope) [compound 2398]
- Epitope sequence binding to IgE antibody, rank of the sequence (Key/Preferably/More preferably) (serum of patient P35 (WDEIA)): Preferably

Substance: 2399 (TEIV; REGION 1..4: note = epitope) [compound 2399]
- Epitope sequence binding to IgE antibody, rank of the sequence (Key/Preferably/More preferably) (serum of patient P35 (WDEIA)): Key

Substance: 2401 (VTEIV; REGION 1..5: note = epitope) [compound 2401]
- Epitope sequence binding to IgE antibody, rank of the sequence (Key/Preferably/More preferably) (serum of patient P36 (WDEIA)): Preferably

Substance: 2402 (TEIV; REGION 1..4: note = epitope) [compound 2402]
- Epitope sequence binding to IgE antibody, rank of the sequence (Key/Preferably/More preferably) (serum of patient P36 (WDEIA)): Key

Substance: 2405 (RCAYVTEIVL; REGION 1..10: note = epitope) [compound 2405]
- Epitope sequence binding to IgE antibody, rank of the sequence (Key/Preferably/More preferably/Further preferably): More preferably

Substance: 2406 (TEIVL; REGION 1..5: note = epitope) [compound 2406]
- Epitope sequence binding to IgE antibody, rank of the sequence (Key/Preferably/More preferably/Further preferably): Preferably
